Laboratory results taken from ChEMBL document CHEMBL5154835, “Design, synthesis and biological evaluation of sulfonamides inhibitors of XPO1 displaying activity against multiple myeloma cells” (Eur J Med Chem, 2022).

What was measured:
Assay type in all cases: functional, cell-based
MM1.S = experiment: Antiproliferative activity against human MM1.S cells assessed as inhibition of cell growth incubated for 4 hrs by CCK-8 assay
YT = experiment: Antiproliferative activity against human YT cells assessed as inhibition of cell growth incubated for 4 hrs by CCK-8 assay
[1] = Antiproliferative activity against human MINO cells assessed as inhibition of cell growth incubated for 4 hrs by CCK-8 assay
H9 = experiment: Antiproliferative activity against human H9 cells assessed as inhibition of cell growth incubated for 4 hrs by CCK-8 assay; conditions: H9, 4 h
[2] = Antiproliferative activity against human VAL cells assessed as inhibition of cell growth incubated for 4 hrs by CCK-8 assay
[3] = Antiproliferative activity against human Rael cells assessed as inhibition of cell growth incubated for 4 hrs by CCK-8 assay
[4] = Antiproliferative activity against human JB-6 cells assessed as inhibition of cell growth incubated for 4 hrs by CCK-8 assay; conditions: JB6, 4 h
[5] = Antiproliferative activity against human Mutu-1 cells assessed as inhibition of cell growth incubated for 4 hrs by CCK-8 assay; conditions: Mutu-1, 4 h
NAMALVA = experiment: Antiproliferative activity against human NAMALVA cells assessed as inhibition of cell growth incubated for 4 hrs by CCK-8 assay

NC(=O)/C(=C/n1cnc(-c2cc(C(F)(F)F)cc(C(F)(F)F)c2)n1)c1cccnc1
IC50 (MM1.S): 0.194 µM

CCOC(=O)/C(=C/n1cnc(-c2cc(C(F)(F)F)cc(C(F)(F)F)c2)n1)c1ccc(NS(C)(=O)=O)cc1
IC50 (MM1.S): 0.146 µM

N#Cc1cncc(/C(=C\n2cnc(-c3cc(C(F)(F)F)cc(C(F)(F)F)c3)n2)C(N)=O)c1
IC50 (MM1.S): 0.118 µM

NC(=O)/C(=C/n1cnc(-c2cc(C(F)(F)F)cc(C(F)(F)F)c2)n1)c1cccc(F)c1F
IC50 (MM1.S): 5.21 µM

NC(=O)/C(=C/n1cnc(-c2cc(C(F)(F)F)cc(C(F)(F)F)c2)n1)c1cncnc1 [ELTANEXOR]
IC50 (YT): 0.103 µM | IC50 [1]: 0.13 µM | IC50 (H9): 0.139 µM | IC50 [2]: 0.287 µM | IC50 (MM1.S): 0.064 µM | IC50 [3]: 0.261 µM | IC50 [4]: 0.334 µM | IC50 [5]: 0.283 µM | IC50 (NAMALVA): 0.0938 µM

Cc1cn(/C=C(/C(N)=O)c2cncnc2)nc1-c1cc(C(F)(F)F)cc(C(F)(F)F)c1
IC50 (MM1.S): 2.07 µM

CN(c1ccc(/C(=C\n2cnc(-c3cc(C(F)(F)F)cc(C(F)(F)F)c3)n2)C(N)=O)cc1)S(C)(=O)=O
IC50 (MM1.S): 0.446 µM

CCNC(=O)/C(=C/n1cnc(-c2cc(C(F)(F)F)cc(C(F)(F)F)c2)n1)c1ccc(NS(C)(=O)=O)cc1
IC50 (MM1.S): 2.16 µM

CCOc1ccc(/C(=C\n2cnc(-c3cc(C(F)(F)F)cc(C(F)(F)F)c3)n2)C(N)=O)c(F)c1F
IC50 (MM1.S): > 10 µM

COc1c(F)cc(/C(=C\n2cnc(-c3cc(C(F)(F)F)cc(C(F)(F)F)c3)n2)C(N)=O)cc1F
IC50 (MM1.S): 3.47 µM

Cc1ccc(S(=O)(=O)Nc2ccc(/C(=C\n3cnc(-c4cc(C(F)(F)F)cc(C(F)(F)F)c4)n3)C(N)=O)cc2)cc1
IC50 (MM1.S): 2.75 µM

CS(=O)(=O)Nc1cccc(/C(=C\n2cnc(-c3cc(C(F)(F)F)cc(C(F)(F)F)c3)n2)C(N)=O)c1
IC50 (MM1.S): 0.271 µM

CS(=O)(=O)Nc1ccc(/C(=C\n2cnc(-c3cc(C(F)(F)F)cc(C(F)(F)F)c3)n2)C(N)=O)cc1C(F)(F)F
IC50 (MM1.S): 0.845 µM
